Reference: PMC11840788, “3,3′-Diindolylmethane (DIM): A Molecular Scaffold for Inhibition of WWP1 and WWP2, Members of the NEDD4 Family HECT E3 Ligases” (ACS Omega, 2025)

How the values were obtained:
[1] = target: T1, WWP1-2L34H (Homo sapiens, UniProt Q9H0M0); test: differential scanning fluorimetry (DSF), WWP1; format: binding; details: 100 μM compound, 0.1% DMSO, Boltzmann fit
T1 construct: WWP1-WW2-2,3-linker-WW3-WW4-HECT (WWP1-2L34H); His-Trx (3C site) (N, cleaved yes); made in house; host or cells: E. coli BL21-CodonPlus RP (plasmid pET32a-WWP1-2L34H, gift of Dr Wenyu Wen)
T1 sequence (Q9H0M0 379-922 limits assumed): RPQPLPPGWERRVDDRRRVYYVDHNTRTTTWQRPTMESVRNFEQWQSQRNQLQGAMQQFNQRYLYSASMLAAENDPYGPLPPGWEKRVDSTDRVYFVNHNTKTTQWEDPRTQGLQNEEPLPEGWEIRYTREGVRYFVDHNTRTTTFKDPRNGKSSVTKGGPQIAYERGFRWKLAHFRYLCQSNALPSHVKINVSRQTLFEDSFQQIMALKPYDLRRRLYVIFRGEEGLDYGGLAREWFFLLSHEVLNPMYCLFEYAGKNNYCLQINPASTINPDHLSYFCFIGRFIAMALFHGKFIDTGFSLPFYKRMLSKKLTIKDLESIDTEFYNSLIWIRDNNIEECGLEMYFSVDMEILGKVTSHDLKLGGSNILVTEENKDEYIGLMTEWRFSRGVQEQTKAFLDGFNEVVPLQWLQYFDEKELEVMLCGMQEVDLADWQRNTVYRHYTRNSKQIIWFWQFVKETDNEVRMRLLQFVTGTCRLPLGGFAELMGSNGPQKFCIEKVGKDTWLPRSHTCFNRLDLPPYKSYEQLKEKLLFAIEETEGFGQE
Text: Differential scanning fluorimetry (DSF) was utilized to initially assess interactions of I3C with both WWP1 and WWP2. Although binding of I3C to WWP1 has been reported previously,[25] we wanted to determine whether such interactions are observed with a protein construct containing the WW2 domain, given its proximity to the proposed exo binding site. In this regard, the WWP1-WW2-2,3-linker-WW3-WW4-HECT (WWP1-2L34H) and WWP2-WW2-2,3-linker-HECT (WWP2-LH) constructs were chosen (SI Figure S2) and DSF assays performed using 100 μM I3C (0.1% DMSO) with midpoint melting temperature (Tm) determined by fitting a Boltzmann regression to the melting curve (Figure 2A). Three independent repeat experiments were performed. […] This is in marked contrast to that seen when using the simple WWP1 HECT domain as a target.[30]
A 96 well-plate (MicroAmp Optical) was loaded with 18 μL of 3.8 μM WWP1-2L34H and 2.5 μM WWP2-LH, in their respective buffers (SI Table S5) containing 5 × SYPRO orange dye. […] The plates were briefly centrifuged before the assay was run using an ABI 7500 RT-PCR following the melt curve using ROX (575 nm) as the “preset” fluorescence dye. […] The midpoint melting temperature (Tm) was calculated using a Boltzmann fit to the fluorescence curve using Protein Thermal Shift Software v1.4 (ThermoFisher). […]

[2] = test system: NEDD4-1; set-up: method as in PMID 27979631; details: cited from earlier work
[3] = target: WWP1 HECT domain; set-up: method as in PMID 31097636; details: microscale thermophoresis, read-out: KD (dissociation constant) WWP1; cited from earlier work

ΔTm at 100 µM [1]: 0.47 ± 0.15 °C
Structure (SMILES): OCc1c[nH]c2ccccc12 [Compound I3C, Indole-3-carbinol, reference compound]
IC50 [2]: 284 µM
Kd [3]: 0.45 µM
